Measured values from patent publication US20160143884A1, “USE OF TETRAHYDROINDAZOLYLBENZAMIDE AND TETRAHYDROINDOLYLBENZAMIDE DERIVATIVES FOR THE TREATMENT OF HUMAN IMMUNODEFICIENCY VIRUS (HIV) AND ACQUIRED IMMUNE DEFICIENCY SYNDROME (AIDS)” (Esanex, Inc., priority 2014, published 2016).

What was measured:
JLAT clones (A2; 9.2) = assay: HIV-1 reactivation and inhibition of reactivation in JLAT clones (GFP, flow cytometry); assay type: cell-based, human
Procedure: Two JLAT clones (A2; 9.2) were incubated for 24 hours with tumor necrosis factor alpha (TNFα), phorbol myristate 13-acetate (PMA), Compound 9 (9, various doses), and all combinations of these three compounds. JLAT cells make GFP when HIV is reactivated from latency.
J-Lat cells (JLAT 9.2, 5×10^5/mL) were cultured in Gibco RPMI-1640 media, supplemented with 10% (vol/vol) FCS and 5% (vol/vol) penicillin streptomycin at 37° C., 5% CO2 under sterile conditions. For HIV-1 reactivation experiments, 10^6 cells/mL were mixed with TPA (10 nM final, unless otherwise indicated) or TNFα (5 ng/mL final) and immediately 150 μL of cell mix was dispensed into 96-well plates. Compound 9 was added to the 96-well plates in serial dilutions. Cells were incubated for 24 h before analysis by flow cytometry.
JLAT (A2) cells were incubated with the following treatments: media (negative control), DMSO (SNX control), 1 ng/mL TNFα, 2 μM PMA, or these agonists+1, 0.1, 0.01, or 0.001 Compound 9 (left to right in the attached figure). 20 h post incubation, the cells were washed, fixed, and run on a flow cytometer. Media, DMSO, TNFα, and PMA were each run in quadruplicate; all other reactions were run in singlet. >10,000 events (cells) were counted for each treatment. Data are expressed as % GFP+cells (negative cells set by gating on media alone control).

[1] = test system: 2LTR non-integrated circular form of the HIV genome; assay: HIV integration in 2LTR assay (real-time PCR); assay type: cell-based, HIV-1
HIV-1Ba-L = assay: Anti-HIV efficacy evaluation in fresh human PBMCs (reverse transcriptase activity readout); assay type: cell-based
Procedure: Anti-HIV Efficacy Evaluation in Fresh Human PBMCs Assay Protocol:
Fresh human PBMCs, seronegative for HIV and HBV, are isolated from screened donors (Biological Specialty Corporation, Colmar, Pa.). Cells are pelleted/washed 2-3 times by low speed centrifugation and re-suspension in PBS to remove contaminating platelets. […] Banded PBMCs are gently aspirated from the resulting interface and subsequently washed 2× with PBS by low speed centrifugation. […] The cells are allowed to incubate for 48-72 hours at 37° C. […] IL-2 is included in the culture medium to maintain the cell division initiated by the PHA mitogenic stimulation. PBMCs are maintained in this medium at a concentration of 1-2×10^6 cells/mL with biweekly medium changes until used in the assay protocol. Cells are kept in culture for a maximum of two weeks before being deemed too old for use in assays and discarded. MDMs are depleted from the culture as the result of adherence to the tissue culture flask.
For the standard PBMC assay, PHA stimulated cells from at least two normal donors are pooled (mixed together), diluted in fresh medium to a final concentration of 1×10^6 cells/mL, and plated in the interior wells of a 96 well round bottom microplate at 50 uL/well (5×10^4 cells/well) in a standard format developed by the Infectious Disease Research department of Southern Research Institute. Pooling (mixing) of mononuclear cells from more than one donor is used to minimize the variability observed between individual donors, which results from quantitative and qualitative differences in HIV infection and overall response to the PHA and IL-2 of primary lymphocyte populations. Each plate contains virus/cell control wells (cells plus virus), experimental wells (drug plus cells plus virus) and compound control wells (drug plus media without cells, necessary for MTS monitoring of cytotoxicity). […] Therefore, infected wells are used in the assessment of both antiviral activity and cytotoxicity. Test drug dilutions are prepared at a 2× concentration in microtiter tubes and 100 μL of each concentration (nine total concentrations) are placed in appropriate wells using the standard format. 50 μL of a predetermined dilution of virus stock is placed in each test well (final MOI˜=0.1). The PBMC cultures are maintained for seven days following infection at 37° C., 5% CO2. After this period, cell-free supernatant samples are collected for analysis of reverse transcriptase activity and/or p24 antigen content. Following removal of supernatant samples, compound cytotoxicity is measured by addition of MTS to the plates for determination of cell viability. Wells are also examined microscopically and any abnormalities are noted.
Reverse Transcriptase Activity Assay Protocol:
Tritiated thymidine triphosphate (^3H-TTP, 80 Ci/mmol, NEN) is received in 1:1 dH2O:Ethanol at 1 mCi/mL. Poly rA:oligo dT template:primer (GE Healthcare) is prepared as a stock solution by combining 150 μL poly rA (20 mg/mL) with 0.5 mL oligo dT (20 units/mL) and 5.35 mL sterile dH2O followed by aliquoting (1.0 mL) and storage at −20° C. The RT reaction buffer is prepared fresh on a daily basis and consists of 125 μL 1.0 M EGTA, 125 μL dH2O, 125 μL 20% Triton X100, 50 μL 1.0 M Tris (pH 7.4), 50 μL 1.0 M DTT, and 40 μL 1.0 M MgCl2. The final reaction mixture is prepared by combining 1 part ^3H-TTP, 4 parts dH2O, 2.5 parts poly rA:oligo dT stock and 2.5 parts reaction buffer. Ten microliters of this reaction mixture is placed in a round bottom microtiter plate and 15 μL of virus containing supernatant is added and mixed. The plate is incubated at 37° C. for 60 minutes. Following incubation, the reaction volume is spotted onto DE81 filter-mats (Wallac), washed 5 times for 5 minutes each in a 5% sodium phosphate buffer or 2×SSC (Life Technologies).

Compound: CC1(C)CC(=O)c2c(C(F)(F)F)nn(-c3ccc(C(N)=O)c(N[C@H]4CC[C@H](O)CC4)c3)c2C1 [Compound 9, 4-(6,6-Dimethyl-4-oxo-3-trifluoromethyl-4,5,6,7-tetrahydro-indazol-1-yl)-2-(trans-4-hydroxy-cyclohexylamino)-benzamide]
- Increase in GFP positive cells (HIV reactivation) (JLAT clones (A2; 9.2); JLAT (A2) model): about 2 fold
- Inhibition of TNFα or PMA (phorbol ester) induced HIV-1 reactivation (JLAT clones (A2; 9.2); JLAT A2 and JLAT 9.2 cells): does not inhibit
- Expression level of 2LTR ([1]; 10 nM, both time points): expression levels similar to HIV Only
- Expression level of 2LTR ([1]; 100 nM): highest expression levels of 2LTR over all other samples
- Expression level of 2LTR ([1]; 1 μM): highest expression levels of 2LTR over all other samples
- IC 95% (95% inhibition of virus replication) (HIV-1Ba-L; HIV-1Ba-L in PBMCs): 11 nM
- Selectivity Index TI (TC50/IC50) (HIV-1Ba-L; HIV-1Ba-L in PBMCs, 50%): 1.5
- Selectivity index (TI) 90% (HIV-1Ba-L; HIV-1Ba-L in PBMCs, TC90/IC90): >22.1
- Selectivity index (TI) 95% (HIV-1Ba-L; HIV-1Ba-L in PBMCs, TC95/IC95): >18.2
- IC50 (HIV-1Ba-L; Human immunodeficiency virus 1, PBMC, 168 h, read-out: Antiviral Activity IC50 (50% inhibition of virus replication), HIV-1Ba-L in PBMCs, seven days): 20 nM
- IC90 (HIV-1Ba-L; Human immunodeficiency virus 1, PBMC, read-out: IC 90% (90% inhibition of virus replication)): 90 nM
